Measurements published in US4584186A, “Radiolabelled metallocene derivatives” (Mallinckrodt, Diagnostica (Holland) B.V., priority 1982, dated 1986).
Structures can show the parent of a compound that is named as a salt.

How the values were obtained:
[1] = rabbit, in vivo
[2] = organ distribution of radioactivity in mouse; details: approx. 0.5 umole/kg
[3] = rat, in vivo; cited from earlier work
[4] = renal clearance after administration to dogs (single injection method); assay type: in vivo, dog (beagle); details: for clearance in words: dog; for clearance: intravenous
Protocol: The renal clearance by tubular excretion is a measure for the renal function was determined in two dogs, viz. beagles with body weights of 13.8 kg (dog a) and 14.8 kg (dog b) respectively by the generally recognized single injection method, in broad outline as described in Example VII. As radioactive materials were used iodine-131 labelled o-iodohippuric acid sodium salt (I-131 Hippuran), indium-111 DTPA (diethylene triamine pentaacetic acid) and ruthenium-97 labelled ruthenocenoylglycine. Indium-111DTP is also recommended to be used in radiodiagnostic compositions for examination of the renal glomerular filtration function. The time intervals between the various administrations were chosen in such a way, that no interference between the radioactive materials could occur. The radioactive materials were administered intraveneously, blood samples were collected 5, 10, 15, 30, 60 and 90 minutes after administration. The emitted radioactivity was determined with a gamma camera. The decreasing radioactivity of the successive blood samples is a measure for the elimination of the radioactive compound from the blood.

[5] = urinary excretion and organ distribution in mice with increasing doses of inactive carrier; details: inactive carrier for labelled ruthenocenoylglycine

O=C(O)CNC(=O)[c-]1cccc1.O=C(O)CNC(=O)[c-]1cccc1.[Ru+2] [ruthenocenoyl-1,1'-diglycine]
accumulation in the kidneys and excretion [1]: very rapid accumulation in the kidneys followed by a rapid excretion

CCOC(=O)CNC(=O)[c-]1cccc1.[Ru+2].c1cc[cH-]c1 [Rc glycine ester, ruthenocenoyl ethylglycinate, labelled with ruthenium-103]
103Ru conc. kidney ([2]; after 1 hour): 141 dose/% body/wt
103Ru conc. kidney ([2]; after 3 hours): 90 dose/% body/wt
103Ru conc. kidney ([2]; after 6 hours): 125 dose/% body/wt
103Ru conc. liver ([2]; after 1 hour): 43 dose/% body/wt
103Ru conc. liver ([2]; after 3 hours): 24 dose/% body/wt
103Ru conc. liver ([2]; after 6 hours): 3.5 dose/% body/wt
103Ru conc. lung ([2]; after 1 hour): 6 dose/% body/wt
103Ru conc. lung ([2]; after 3 hours): 2.6 dose/% body/wt
103Ru conc. lung ([2]; after 6 hours): 3.0 dose/% body/wt

NC(=O)[c-]1cccc1.[Ru+2].c1cc[cH-]c1 [ruthenocene monocarboxylic acid amide]
accumulation of radioactivity in lung and liver relative to kidney [3]: at least equal amounts as in the kidney

O=C(O)CNC(=O)[c-]1cccc1.[Ru+2].c1cc[cH-]c1 [Ru-97 ruthenocenoylglycine, ruthenium-97 labelled ruthenocenoylglycine]
clearance in words ([4]; in vivo): faster than that of labelled o-iodohippuric acid salt

O=C(O)CNC(=O)[c-]1cccc1.[Ru+2].c1cc[cH-]c1 [Rc glycine, ruthenocenoylglycine, labelled with ruthenium-103]
accumulation in the kidneys and excretion [1]: very rapid accumulation in the kidneys followed by a rapid excretion
renal clearance (general statement) [1]: even faster than that of iodohippuric acid sodium salt labelled with iodine-125
renal clearance compared with iodine-125 labelled o-iodohippuric acid sodium salt [1]: cleared more rapidly than iodine-125 labelled o-iodohippuric acid sodium salt

O=C(O)CNC(=O)c1ccccc1I [ortho-iodohippuric acid (salt), ortho-iodohippuric acid]
results when used as inactive carrier instead of ruthenocenoyl- or ferrocenoylglycine [5]: Comparable results

[Ru+2].c1cc[cH-]c1.c1cc[cH-]c1 [ruthenium-103 labelled ruthenocene, ruthenocene]
accumulation of radioactivity in lung and liver relative to kidney [3]: at least equal amounts as in the kidney

indium-111 DTPA (diethylene triamine pentaacetic acid) [In - 111 DTPA]
clearance ([4]; dog a, beagle 13.8 kg): 79.6 mL/min
clearance ([4]; dog b, beagle 14.8 kg): 62.2 mL/min
clearance in words ([4]; comparison of the three radioactive compounds): comparatively slow

Nc1ccc(C(=O)NCC(=O)O)cc1 [para-aminohippuric acid (salt), para-aminohippuric acid]
results when used as inactive carrier instead of ruthenocenoyl- or ferrocenoylglycine [5]: Comparable results
